From patent US20260152533A1, “COMBINATION INHIBITORS FOR TREATING FIBROSIS” (Memorial Sloan-Kettering Cancer Center, priority 2021, published 2026)

What was measured:
[1] = test system: pancreatic stellate cells (PSCs); assay: Growth experiments, PSCs; assay type: cell-based, mouse; settings: 20% Gln, TGFβ
Source text: NIH-3T3 cells were obtained from ATCC (CRL-1658); 293 T cells were obtained from ATCC (CRL-3216). PSCs were isolated from C57BL/6 mice by differential centrifugation as previously described^49 and their mesenchymal origin was validated by analyzing the expression of various mesenchymal and epithelial markers. MFBs were isolated from FVB/N mice by differential centrifugation as previously described^50. DB7 mouse breast cancer cells were obtained from Alexander Borowsky (University of California Davis Comprehensive Cancer Center, Sacramento, CA, USA) through an MTA to Ohio State University (OSU). KPC (Kras^LSL-G12D; Trp53^LSL-R172H; Pdx1-Cre) mouse PDAC cells were a gift from Scott Lowe (Memorial Sloan Kettering Cancer Center. (MSKCC)). […]
A total of 0.2×10^5 cells/well were plated in 24-well culture plates and media was changed and treatments started 5-6 hours later. Cell numbers at the start of treatment (day 0 “d 0”) and 1, 2 and 3 days later were counted using the Multisizer 4e (Beckman) and normalized to the cell number at d 0. In co-culture assays, a fraction of the cell population was analyzed by flow cytometry for GFP expression, and the rest counted with the Multisizer 4e. The number of KPC-GFP cells was determined by multiplying the fraction of GFP+ cells with the total number of cells.

[2] = test system: pyruvate carboxylase (PC); assay: Stable isotope tracing in NIH-3T3 cells (surrogate for PC activity); assay type: cell-based, mouse
Description: Cells were plated in six-well cell culture plates at a concentration aimed to reach 0.5-1×10^6 cells at the time of harvest. For quantification of relative metabolite abundance, cells were cultured with glutamine-free DMEM containing different concentrations of L-glutamine and supplemented with 10% dialyzed FBS and in some experiments were treated with TGFβ for 48 hours. For the [U-^13C]and [3,4-^13C]glucose tracing experiments, cells were cultured as above, and in the last 8 hours media was replaced with DMEM without D-glucose and L-glutamine supplemented with 2 mM or 0.2 mM L-glutamine and 10 mM [U-^13C]or [3,4-^13C]D-glucose (Cambridge Isotope Laboratories) and 10% dialyzed FBS. For the [U-^13C]and [1-^13C]lactate tracing experiments, cells were cultured in 2 or 0.2 mM L-glutamine, 10 or 1 mM D-glucose in the presence or absence of 10 mM sodium lactate, and in the last 8 hours media was replaced with DMEM without D-glucose and L-glutamine supplemented with 2 mM or 0.2 mM L-glutamine, 10 or 1 mM D-glucose, 10 mM [U-^13C]or [1-^13C]sodium lactate (Cambridge Isotope Laboratories) and 10% dialyzed FBS. For relative quantification of metabolites by gas chromatography-mass spectroscopy (GC-MS), cells were washed briefly with PBS, which was then fully aspirated and metabolism was quenched by immediately adding 1 mL of 80:20 methanol:water stored at −80° C. containing 20 μM deuterated 2-hydroxyglutarate (d5-2HG) as an internal standard. For stable isotope tracing experiments, metabolism was quenched without the PBS washing step by adding 1 mL of 80:20 methanol:water as above. After overnight incubation at −80° C., the resulting extracts were scraped on dry ice, transferred into a 1.5 mL centrifuge tube, and centrifuged at 20,000 g for 20 minutes at 4° C. The supernatants were collected in clean tubes and dried in a vacuum evaporator (Genevac EZ-2 Elite) for 2 hours.
For [U-^13C]glucose tracing into proteinogenic amino acids, cells were cultured in 10% Gln in the presence or absence of TGFβ for 48 hours. In the last 24 hours, the media including all treatments was replaced with DMEM without L-glutamine and D-glucose and supplemented with 0.2 mM L-glutamine and 10 mM [U-^13C]D-glucose (Cambridge Isotope Laboratories) and 10% dialyzed FBS. For [U-^13C]lactate tracing into ECM, confluent cells were cultured in 10% Gln in the presence of 10 mM [U-^13C]sodium lactate for 6 days. The media was replaced every other day. ECM was decellularized as described above. Cells and ECM were washed with PBS, and proteins were precipitated with methanol:chloroform:water (1:1:1). The interphase was washed with methanol, and the dried pellet was subjected to acid hydrolysis with 6 N hydrochloric acid (HCl) and incubation at 95° C. for 16 hours. Samples were cooled to room temperature and centrifuged at 20,000 g for 10 minutes. The cleared supernatant was dried in a vacuum evaporator (Genevac EZ-2 Elite) for 2 hours, and abundance of aspartate, glutamate/glutamine or hydroxyproline isotopologues was measured by GC-MS as described below.
GC-MS measurements were performed as described before^11. Ions used for quantification of metabolite levels were as follows: d5-2HG m/z 354; citrate m/z 465; alpha-ketoglutarate m/z 304; succinate m/z 247; fumarate m/z 245; malate m/z 335; aspartate m/z 232; hydroxyproline m/z 332; proline m/z 216; glutamate m/z 246; glutamine m/z 245; lactate m/z 219; pyruvate m/z 174. All peaks were manually inspected and verified relative to known spectra for each metabolite. Peak identification and integration were done with MassHunter software vB.09 (Agilent Technologies). For relative quantification of cell samples, integrated peak areas were normalized to the internal standard d5-2HG and to the packed cell volume of each sample. Absolute quantification of hydroxyproline in tumor acid hydrolysates was performed against a standard curve of commercial trans-4-hydroxy-L-proline (Sigma). […]

Q: What does the source list for “TGFβ: transforming growth-factor beta; TGFβ-1 purchased from Peprotech”?
A: cell proliferation [1]: unable to proliferate; m+3 labelling of aspartate and glutamate/glutamine incorporated into cellular protein ([2]; 10% Gln, TGFβ 48 hours (FIG. 10I)): reduced; m+2 labelling of citrate, indicative of PDH activity ([2]; TGFβ 48 hours (FIG. 3E)): increased; m+3 and/or m+5 labelling of the metabolites analysed from [U-13C]Glc ([2]; high and low Gln medium, TGFβ 48 hours (FIG. 3E)): reduced; low-Gln increase of m+1 labelling of aspartate, malate and citrate from [3,4-13C]Glc (PC activity) ([2]; low Gln, TGFβ 48 hours (FIGS. 3G and 3H)): suppressed
